Values of other authors as cited in patent US20040106561A1, “Health supplement” (Novogen Research Pty. Ltd., priority 1992, published 2004).

System: oestrogen receptors
Conditions: animal and in vitro studies

| oestrogenic/anti-oestrogenic activity and SHBG-stimulating capacity relative to daidzein and formononetin | Structure (SMILES) |
| --- | --- |
| approximately 10 times | O=c1c(-c2ccc(O)cc2)coc2cc(O)cc(O)c12 [genistein] |

Same assay, conditions: in vitro and in vivo studies; descending order genistein, biochanin A, equol, daidzein, formononetin

| Structure (SMILES) | oestrogenic activity |
| --- | --- |
| Oc1ccc([C@H]2COc3cc(O)ccc3C2)cc1 [equol] | oestrogenic activity |
| CC(C(=O)c1ccc(O)cc1O)c1ccc(O)cc1 (stereo not shown) [O-desmethylangolensin] | only very weakly oestrogenic |

Further lines, results first:

| oestrogenic activity | Structure (SMILES) |
| --- | --- |
| oestrogenic activity | O=c1c(-c2ccc(O)cc2)coc2cc(O)cc(O)c12 [genistein] |
| oestrogenic activity | COc1ccc(-c2coc3cc(O)cc(O)c3c2=O)cc1 [biochanin A] |
| oestrogenic activity | O=c1c(-c2ccc(O)cc2)coc2cc(O)ccc12 [daidzein] |
| non-oestrogenic | COc1cc2c(=O)c(-c3ccc(O)cc3)coc2cc1O [glycitein] |
